Tests used:
[1] = tested on: MDA-MB-231 derived mammary tumors; experiment: in vivo invasion assay, MDA-MB-231 derived mammary tumors; design: species or system human tumor xenograft in SCID mice tumor xenograft in SCID mice; conditions: MDA-MB-231 tumors in mammary fat pads of SCID mice; FIG. 1C
Excerpt: Therefore, an in vivo invasion assay was created in which three needles (microneedles ˜100 um in diameter) containing matrigel and various growth factors are placed independently with microscopic precision, using a specially designed micromanipulator guided device, into the primary tumor for chemotaxis-based cell collection in vivo [3]. One needle contains control conditions (usually no ligand or an inhibitor), and the other two are identical. […] Fetal serum was also sufficient but this required signaling by the EGF receptor again implicating the EGF receptor. Furthermore, CSF-1 was also sufficient for cell collection. […]
Mammary tumors derived by injecting the human cell line MDA-MB-231 into a mammary fat pad of mice were used in the in vivo invasion assay. […] The involvement of EGF and CSF1 in carcinoma cell invasion has been analyzed from primary breast tumors derived from the injection of MDA-MB-231 cells into the mammary fat pads of SCID mice. […]

[2] = tested on: Human lung tumors heterotransplanted into nude mice; experiment: in vivo invasion assay, chemotaxis-based cell collection into needles, human lung tumor heterotransplants; conditions: needles containing 50 nM Heregulin; first mouse to mouse transplant
Excerpt: Therefore, an in vivo invasion assay was created in which three needles (microneedles ˜100 um in diameter) containing matrigel and various growth factors are placed independently with microscopic precision, using a specially designed micromanipulator guided device, into the primary tumor for chemotaxis-based cell collection in vivo [3]. One needle contains control conditions (usually no ligand or an inhibitor), and the other two are identical. […] Fetal serum was also sufficient but this required signaling by the EGF receptor again implicating the EGF receptor. Furthermore, CSF-1 was also sufficient for cell collection. […] Migration and collection was directly correlated with macrophage density in the mammary gland, stage of progression to malignancy (only background levels of cells, <200 cells, were collected from normal mammary glands and adenoma stage tumors compared with carcinoma stage tumors, ˜1000 cells) and the presence of CSF1 in the tumor was required for cell collection as shown using mouse models with either decreased (op/op) or increased (tet on CSF-1) CSF-1 expression that regulates macrophage recruitment to the mammary gland and metastasis. […] Furthermore, the motility of tumor cells and intravasation occurs preferentially in association with macrophages. […]

Compound	CSF1-mediated collection of invasive cells (tumor cell and macrophage invasion) [1]	EGF-mediated collection of invasive cells (tumor cell and macrophage invasion) [1]	fold more cells collected in needles as compared to needles with buffer alone [2] [fold]
COc1cc2ncnc(Nc3ccc(F)c(Cl)c3)c2cc1OCCCN1CCOCC1 [Iressa]	inhibited	inhibited	–
Heregulin [reference compound]	–	–	2

— patent publication US20120322685A1, “DEVICE FOR COLLECTING AND ANALYZING MIGRATORY TUMOR CELLS” (priority 2010, published 2012)
